From patent publication US8809344B2, “Compounds, compositions, and methods for control of hepatitis C viral infections” (priority 2008, dated 2014)

What was measured:
[1] = tested on: chimeric APV23 (FL-J6/JFH) genotype 2a HCV; assay: HCV APV23 viral infectivity assay in Huh7.5 cells, 3′NTR RNA by realtime quantitative PCR; assay type: cell-based, hepatitis C virus; details: FIG. 6; genotype 2a NS4B coding region
Protocol: (§1) Inhibition of HCV infectivity by AP0080978 and its analogs (AP0080977, non-active enantiomer; AP0089652, racemate; and AP0080935, an aromatic, non-optically active analog of AP0080978) was assayed by exposing cells with infectious chimeric HCV virions in the presence of the compounds. This was accomplished by use of an HCV cell culture system essentially as described in Pietschmann, T. et al. (2006) 103(19): 7408-13, Proc. Natl. Acad. Sci. USA; and elsewhere. Two viral constructs were utilized to characterize inhibition of viral infectivity (FIG. 4). Construct APV23 (FL-J6/JFH) is a full-length, chimeric, genotype 2a HCV genome containing the HCV core through the NS2 first transmembrane domain coding region from the J6 HCV isolate linked to the second NS2 transmembrane domain NS3 through NS5B coding region of HCV strain JFH-1, as shown in FIG. 4 (i.e. an HCV chimera with the “C3 Junction” described in Pietschmann, T. et al. (2006) Proc. Natl. Acad. Sci. USA 103(19): 7408-13; see page 7409 and FIG. 2A of Pietschmann, T. et al.). Construct APV112 was generated by replacing nucleotides encoding amino acids 53 to 218 of the NS4B gene of the APV23 sequence with a corresponding sequence from a genotype 1b (Con1 strain).
(§2) Huh7.5 cells were plated at a density of 20,000 cells per well in 96-well plates. The cells were exposed to the chimeric HCV virions at a multiplicity of infection of 0.01. Potential inhibitory compounds were added simultaneously with the chimeric virus. Cells were incubated for 48 hours and then the levels of HCV 3′NTR and GAPDH RNA were quantified by realtime quantitative PCR. Data were analyzed by the comparative Ct method with delta-delta Ct determined relative to 1.0% DMSO. Results in FIGS. 5 and 6 are depicted as log change in 3′NTR copies relative to 1.0% DMSO.

Huh7.5 cells = assay: ATP viability assay (CellTiter-Glo) in replicon-harboring Huh7.5 cells; assay type: cell-based, human; details: 24 hours post-treatment; Huh7.5 cells harboring transient genotype 1b replicon
Protocol: Inhibition of HCV replication by AP0089652, AP0080978 (enantiomer 2 from Example 1) and AP0080977 (enantiomer 1 from Example 1) were assayed by exposing cells harboring an HCV genotype 1b replicons to the compounds and quantitating HCV replicon levels following exposure. The replicon used in these studies was a transient genotype 1b subgenomic replicon generated from the Con1 strain. In this replicon, the HCV internal ribosome entry site (IRES) within the 5′ non-translated region (NTR) drives expression of the first 32 amino acids of the core protein fused to humanized Renilla luciferase (hRluc). The encephalomycarditis IRES lies 3′ to the hRluc open reading frame (ORF) and drives expression of non-structural (NS) proteins NS3 through NS5B. Huh7.5 cells (U.S. patent application Ser. No. 10/534,571) harboring this replicon were seeded into 96-well plates at 20,000 cells per well in medium containing 10% FBS, 1× penicillin/streptomycin, 1× non-essential amino acids, and 100 ng/ml Fungizone. After a four hour attachment period, compound was added to wells using a five point 3-fold serial dilution series with four replicate treatments per dose. […] Compound-mediated HCV inhibition and toxicity were assayed 24 hours post-treatment using Renilla luciferase readout and an ATP viability assay (CellTiter-Glo, Promega, Madison, Wis., USA), respectively. […]

[2] = tested on: chimeric APV112 HCV (genotype 2a with genotype 1b NS4B amino acids 53 to 218); assay: HCV APV112 viral infectivity assay in Huh7.5 cells, 3′NTR RNA by realtime quantitative PCR; assay type: cell-based, hepatitis C virus; details: for Log change in 3′NTR copies relative to 1.0% DMSO (GAPDH normalized): APV112, 48 hours
Protocol: as §1, §2

For `O=C(NCc1cccs1)c1nn2c(c1Cl)NC(c1ccco1)CC2C(F)(F)F` (stereo not drawn) [Compound 89652, 3-chloro-5-(furan-2-yl)-N-(thiophen-2-ylmethyl)-7-(trifluoromethyl)-4,5,6,7-tetrahydropyrazolo[L5-a]pyrimidine-2-carboxamide], the “chimeric APV23 viral infectivity” value [1] was “unaffected”, the CC50 (Huh7.5 cells) was > 100 µM and the “potency in viral infectivity assays relative to HCV replicon assays” value [2] was “significantly more potent”. The “Log change in 3′NTR copies relative to 1.0% DMSO (GAPDH normalized)” value ([2]; 0.02 μM) was −0.15, the “Log change in 3′NTR copies relative to 1.0% DMSO (GAPDH normalized)” value ([2]; 0.07 μM) was −0.52 and the “Log change in 3′NTR copies relative to 1.0% DMSO (GAPDH normalized)” value ([2]; 0.22 μM) was −0.85. For the same compound, the “Log change in 3′NTR copies relative to 1.0% DMSO (GAPDH normalized)” value ([2]; 0.67 μM) was −1.31, the “Log change in 3′NTR copies relative to 1.0% DMSO (GAPDH normalized)” value ([2]; 2 μM) was −1.47 and the “chimeric APV112 viral infectivity” value ([2]; FIG. 5, sensitive genotype 1b NS4B region) was “reduced”.
